Measurements: article PMC6504873, “High-throughput screening of the Plasmodium falciparum cGMP-dependent protein kinase identified a thiazole scaffold which kills erythrocytic and sexual stage parasites” (Scientific Reports, 2019)
pIC50: −log10 of the molar value. Values after ≈ are worked out from the molar mass of the structure shown.

Tests used:
[1] = molecular target: T1, TQ PfPKG (PfPKG_T618Q) (Plasmodium falciparum, UniProt Q8I719, T618Q); assay: Kinase Glo enzymatic assay, gatekeeper mutant TQ PfPKG; assay type: biochemical, P. falciparum
T1 construct: His6 (N); host or cells: E. coli BL21
Method: Taking advantage of the availability of more than 3,000 thiazole derivatives among the GSK compound collection, cluster 3 was thoroughly investigated for potent and selective inhibitors of WT PfPKG. […] We explored the binding mode by also testing compounds on the gatekeeper mutant enzyme TQ PfPKG. […] These two time points were chosen to give an indication of the speed of kill of the compounds. […] A preliminary safety test was performed on human AuroraB and LCK kinases which often underpin toxicity issues. […] Further assays for compound characterization included determination of solubility and cytotoxicity (HepG2 inhibition). Thiazoles have been previously identified as human BRaf inhibitors that are used to treat melanoma.
(§1) Protein production was outsourced to the Division of Signal Transduction Therapy, University of Dundee. Briefly, the pTRChis expression vectors (Invitrogen) containing an N-terminally His6-tagged PfPKG wildtype and T618Q were used to transform BL21 cells (protocol adapted from[23]). The cells were grown at 37 °C until the OD600 was 0.4–0.6 then the temperature was reduced to 15 °C and the cells were induced with 250 µM IPTG and grown for a further 16–18 hours before harvesting. The His6-PfPKG was purified on Cobalt agarose followed by gel filtration and the protein was dialysed into 25 mM Hepes pH 7.5, 0.1 mM EGTA, 150 mM NaCl, 50% glycerol and 2 mM DTT.
(§2) Initial optimization of the PKG assay was performed manually in 384-well plates and analysed with GraFit 7. The buffer for all assays was 25 mM HEPES pH 7.3 (GIBCO), 10 mM MgCl2 (Sigma), 2 mM DTT (Sigma), 0.01 mM cGMP (Sigma), 0.1 mg/ml BSA (Ambion). Enzymatic activity was tested using a luminescence-based kit (Promega KinaseGlo). Addition of the first reagent depletes the unused ATP and addition of the second reagent converts ADP (product of the kinase reaction) to ATP, which is then measured through a luciferin/luciferase reaction. The amount of luminescence is directly proportional to ATP turnover by the kinase. The kit was chosen because it can be miniaturized to small volumes (i.e. 4 µl) in 1536-well plates, for use in HTS.
(§3) We used PKA peptide substrate (SCP0212, Sigma-Aldrich) for WT and TQ PfPKG, dissolved in milliQ water at a final concentration of 5 mM, and Long S6 peptide substrate (produced at the University of Dundee, sequence […]) for HuPKGIα, dissolved in water at a final concentration of 30 mM.
(§4) We calculated the Michaelis-Menten (Km) constant for ATP and peptide substrate (PKA or Long S6) for all enzymes using GraphPad Prism (Supplementary Figs 2 and 3 and Supplementary Table 3). In order to identify different types of PKG inhibitors, including ATP competitive or non-competitive inhibitors, as well as inhibitors that bind to the peptide substrate pocket, we performed all assays using ATP and peptide substrate at a concentration equal to the Km. We also determined enzyme activity by calculating ATP turnover (Kcat) over the Km (Supplementary Table 3). The Kcat was calculated as (Vmax*slope)/[E] where Vmax is the maximum velocity and [E] is the concentration of the enzyme.
(§5) The plates containing the compounds were prepared at GSK in Upper Providence or Stevenage. Compounds were tested at a single final concentration of 10 µM or in a dose response with a range of concentrations starting from 100 μM to 1.6 nM (1 in 3 serial dilutions). Compounds were dispensed in the plates at the required concentration in a 40 nl volume. All plates (1536-well white Greiner) contained 40 nl of DMSO in lanes 11 and 12 (control 1, 100% enzyme activity) and were empty in lanes 35 and 36 (control 2, 0% enzyme activity). The plates were removed from −20 °C 1 hour before starting the assay. Using a Multidrop Combi dispenser (Thermo Scientific), 2 µl of the buffer containing ATP and the substrate were added to all wells then 2 µl of buffer only were added to column 35 and 36. […]

[2] = test system: HepG2 cells; assay: Cytotoxicity assay (CellTiter-Glo); assay type: cell-based; conditions: Homo sapiens, HepG2, read-out: HepG2 (μM)
Method: Cytotoxicity assays were performed on HepG2 cells as previously described. HepG2 cells were removed from a T-175 TC flask using 5 mL Eagle’s MEM (containing 10% FBS, 1% NEAA, 1% penicillin/streptomycin) and dispersed in the medium. Seeding density was checked to ensure that new mono-layers were not more than 50% confluent at the time of harvesting. Cells were added to 500 mL of the same medium at a final density of 1.2 × 10^5 cells/mL. They were then dispensed (25 μL, about 3,000 cells per well) into 384-well clear-bottom plates using a Multidrop Combi dispenser. Test compounds (250 nL) were dispensed into the plates with an EchoH liquid handler prior to addition of the cells. Plates were incubated for 48 h at 37 °C, 5% CO2. After incubation, plates were equilibrated at room temperature for 30 minutes before proceeding to develop the luminescent signal. The CellTiter-GloH Reagent was allowed to equilibrate at room temperature for 30 minutes and added to the plates (25 μL per well) using a Multidrop Combi dispenser. Plates were left for 10 minutes at room temperature for stabilization and then read using a Perkin Elmer ViewLux.

[3] = PFI; assay type: physicochemical
Method: Dose response assays were performed in duplicate on WT PfPKG, HuPKGIα and a mock assay performed in the absence of enzyme (the counterscreen). Comparison of the PfPKG and HuPKGIα IC50 values gave information on selectivity and the counterscreen identified luminescent false positive compounds (see Materials and Methods). Cytotoxicity assays were also performed using a human hepatoma cell line (HepG2)[30]. […] This set of compounds was clustered by similarity using a complete-linkage algorithm and a threshold of 0.55[31]. A total of 79 clusters and 54 singletons were obtained.

[4] = Aqueous kinetic solubility assay (CAD); assay type: physicochemical; conditions: several values in a cell = replicates
Method: […] of 10 mM DMSO compound solution is diluted to 100 μl with pH7.4 phosphate buffered saline, equilibrated for 1 hour at room temperature and filtered through Millipore MultiscreenHTS-PCF filter plates (MSSL BPC). The filtrate is quantified by suitably calibrated Charged Aerosol Detector[56].

[5] = ChromlogD (lipophilicity)
[6] = AM_Perm (artificial membrane permeability); assay type: in vitro ADME; conditions: PAMPA
[7] = molecular target: T2, WT PfPKG (Plasmodium falciparum, UniProt Q8I719); assay: Kinase Glo enzymatic assay, recombinant WT PfPKG; assay type: biochemical, P. falciparum; conditions: WT PfPKG (μM), recombinant WT PfPKG
T2 construct: recombinant full length wild type (WT) PfPKG; His6 (N); host or cells: E. coli BL21
Method: To identify new PKG inhibitor scaffolds, the 1.7 million GlaxoSmithKline Full Diversity collection was tested at a single final concentration of 10 μM against recombinant full length wild type (WT) PfPKG using a Kinase Glo-based assay (Promega). The results gave a robust Z′ mean value of 0.85. At an average statistical cut-off of 30%, 20,174 primary hits were identified with an overall hit rate of 1%. Fresh samples of these primary hits were tested in duplicate against WT PfPKG and also against human PKGIα (HuPKGIα) (Supplementary Fig. 1) at a final concentration of 10 μM (confirmation step).
as §1, §2, §3, §4
as §5, with “36. Finally 2 µl of buffer containing the enzyme were dispensed in all the plate wells except for lanes 35 and 36.” for “36.”

[8] = molecular target: PI3KD (Homo sapiens, UniProt O00329); assay: Preliminary safety test on human PI3KD kinase; assay type: biochemical
[9] = test system: P. berghei; design: method as in PMID 28446690; conditions: P. berghei mouse model ref 44; cited from earlier work
[10] = test system: P. falciparum; design: method as in PMID 28446690; conditions: P. falciparum mouse model ref 44; cited from earlier work
[11] = design: method as in PMID 24958809; conditions: in the clinic ref 39; cited from earlier work

T2 sequence (Q8I719 whole entry): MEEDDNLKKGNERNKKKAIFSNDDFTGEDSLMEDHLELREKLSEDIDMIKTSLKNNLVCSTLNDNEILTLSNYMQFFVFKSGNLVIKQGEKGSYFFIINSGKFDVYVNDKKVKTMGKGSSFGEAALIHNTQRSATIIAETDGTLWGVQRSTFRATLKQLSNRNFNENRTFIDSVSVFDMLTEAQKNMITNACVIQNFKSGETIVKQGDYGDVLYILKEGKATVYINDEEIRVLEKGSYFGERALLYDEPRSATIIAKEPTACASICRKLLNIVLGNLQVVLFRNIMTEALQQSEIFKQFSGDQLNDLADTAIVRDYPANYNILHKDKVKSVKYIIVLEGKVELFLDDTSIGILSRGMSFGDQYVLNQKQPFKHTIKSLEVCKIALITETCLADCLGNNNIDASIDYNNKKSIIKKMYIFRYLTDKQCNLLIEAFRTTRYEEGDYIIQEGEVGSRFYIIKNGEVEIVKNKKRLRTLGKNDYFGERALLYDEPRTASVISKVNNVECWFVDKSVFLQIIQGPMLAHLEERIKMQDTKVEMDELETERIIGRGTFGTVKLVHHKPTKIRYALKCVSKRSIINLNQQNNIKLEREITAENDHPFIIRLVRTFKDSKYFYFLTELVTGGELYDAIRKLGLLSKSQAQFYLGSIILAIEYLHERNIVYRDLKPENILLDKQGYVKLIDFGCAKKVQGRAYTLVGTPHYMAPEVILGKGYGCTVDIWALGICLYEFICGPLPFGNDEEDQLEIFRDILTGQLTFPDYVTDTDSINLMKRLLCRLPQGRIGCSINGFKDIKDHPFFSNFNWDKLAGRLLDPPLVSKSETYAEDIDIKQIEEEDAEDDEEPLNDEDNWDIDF
PI3KD, sequence (O00329 whole entry): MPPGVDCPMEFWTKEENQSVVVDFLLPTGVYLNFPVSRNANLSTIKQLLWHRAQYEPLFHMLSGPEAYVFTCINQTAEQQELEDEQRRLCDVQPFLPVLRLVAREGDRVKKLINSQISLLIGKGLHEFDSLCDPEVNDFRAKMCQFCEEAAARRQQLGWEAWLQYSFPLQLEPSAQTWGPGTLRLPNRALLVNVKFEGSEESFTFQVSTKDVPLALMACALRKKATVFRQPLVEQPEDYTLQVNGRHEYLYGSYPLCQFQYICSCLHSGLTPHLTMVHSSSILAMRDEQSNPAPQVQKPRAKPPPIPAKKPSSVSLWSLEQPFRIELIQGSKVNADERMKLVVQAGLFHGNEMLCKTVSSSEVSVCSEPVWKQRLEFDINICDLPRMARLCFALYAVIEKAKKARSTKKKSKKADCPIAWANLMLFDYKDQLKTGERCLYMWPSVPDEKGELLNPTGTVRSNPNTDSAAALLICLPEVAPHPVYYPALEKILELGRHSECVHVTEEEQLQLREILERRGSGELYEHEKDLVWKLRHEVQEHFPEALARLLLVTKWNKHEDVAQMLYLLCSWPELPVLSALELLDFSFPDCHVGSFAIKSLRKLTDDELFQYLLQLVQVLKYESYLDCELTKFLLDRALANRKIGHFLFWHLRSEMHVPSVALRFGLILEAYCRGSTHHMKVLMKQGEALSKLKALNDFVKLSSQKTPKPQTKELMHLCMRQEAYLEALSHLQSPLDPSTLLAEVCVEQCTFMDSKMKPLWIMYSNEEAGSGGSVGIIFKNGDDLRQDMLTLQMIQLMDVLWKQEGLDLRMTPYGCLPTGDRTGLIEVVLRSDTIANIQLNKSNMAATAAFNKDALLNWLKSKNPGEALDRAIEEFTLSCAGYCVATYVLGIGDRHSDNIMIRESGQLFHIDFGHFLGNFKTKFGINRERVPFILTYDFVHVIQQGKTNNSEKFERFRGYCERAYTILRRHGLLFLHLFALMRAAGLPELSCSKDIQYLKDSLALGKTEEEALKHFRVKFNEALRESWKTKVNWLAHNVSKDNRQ
PI3KD, sequence (P27986 whole entry partner): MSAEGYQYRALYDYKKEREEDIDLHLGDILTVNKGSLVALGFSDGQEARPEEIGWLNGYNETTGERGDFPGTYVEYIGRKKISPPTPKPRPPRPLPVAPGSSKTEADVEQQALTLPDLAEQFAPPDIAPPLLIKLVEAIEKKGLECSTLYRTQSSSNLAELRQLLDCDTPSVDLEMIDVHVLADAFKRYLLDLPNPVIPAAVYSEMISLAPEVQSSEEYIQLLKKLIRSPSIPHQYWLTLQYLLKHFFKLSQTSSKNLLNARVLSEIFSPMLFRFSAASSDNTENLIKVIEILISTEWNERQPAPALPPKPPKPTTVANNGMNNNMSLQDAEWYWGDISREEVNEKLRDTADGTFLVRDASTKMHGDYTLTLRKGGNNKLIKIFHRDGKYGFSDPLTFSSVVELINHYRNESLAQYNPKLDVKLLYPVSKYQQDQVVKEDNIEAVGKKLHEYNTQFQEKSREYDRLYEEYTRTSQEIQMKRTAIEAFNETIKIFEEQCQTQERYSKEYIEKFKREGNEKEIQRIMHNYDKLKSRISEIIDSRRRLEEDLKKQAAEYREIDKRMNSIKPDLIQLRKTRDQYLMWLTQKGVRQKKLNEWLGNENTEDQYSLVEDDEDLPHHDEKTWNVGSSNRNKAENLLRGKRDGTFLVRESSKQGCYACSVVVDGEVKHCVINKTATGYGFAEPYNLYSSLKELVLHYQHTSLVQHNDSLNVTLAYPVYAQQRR
T1 sequence (Q8I719 whole entry T618Q): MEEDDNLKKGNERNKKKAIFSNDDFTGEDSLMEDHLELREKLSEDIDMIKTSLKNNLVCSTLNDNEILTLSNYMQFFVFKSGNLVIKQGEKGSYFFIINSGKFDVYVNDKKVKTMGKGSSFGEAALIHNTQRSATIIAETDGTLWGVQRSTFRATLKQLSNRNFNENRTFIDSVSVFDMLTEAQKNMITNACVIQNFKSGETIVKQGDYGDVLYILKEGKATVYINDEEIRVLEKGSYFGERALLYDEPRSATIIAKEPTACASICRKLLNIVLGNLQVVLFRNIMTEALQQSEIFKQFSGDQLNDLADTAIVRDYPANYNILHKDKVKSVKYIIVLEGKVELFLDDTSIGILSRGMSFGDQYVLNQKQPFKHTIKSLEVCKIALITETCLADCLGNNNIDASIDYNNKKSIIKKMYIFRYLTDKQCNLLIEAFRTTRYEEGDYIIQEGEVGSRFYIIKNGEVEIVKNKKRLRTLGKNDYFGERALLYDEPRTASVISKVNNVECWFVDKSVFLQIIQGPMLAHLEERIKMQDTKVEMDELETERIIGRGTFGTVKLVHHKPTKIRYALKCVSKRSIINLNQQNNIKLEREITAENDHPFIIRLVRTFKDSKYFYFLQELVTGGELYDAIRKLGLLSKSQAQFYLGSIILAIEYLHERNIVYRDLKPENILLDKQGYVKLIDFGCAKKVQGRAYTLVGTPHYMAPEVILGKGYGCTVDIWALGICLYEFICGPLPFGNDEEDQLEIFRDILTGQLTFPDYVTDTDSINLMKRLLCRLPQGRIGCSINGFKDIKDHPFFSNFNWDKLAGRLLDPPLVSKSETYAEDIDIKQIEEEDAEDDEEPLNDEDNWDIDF

Q: With Nc1nccc(-c2c(-c3ccc(F)cc3)ncn2C2CCNCC2)n1 [Compound 1] as the compound, how does the pIC50 [1] read?
A: < 4.00

Q: And the IC50 [2]?
A: > 100 µM

Q: What about the PFI [3] of the same compound?
A: 3.8

Q: What about the solubility at 1 h ([4]; pH 7.4, aqueous buffer, kinetic from dmso stock) of the same compound?
A: 155 µM (≈ 52.5 µg/mL)

Q: And the solubility at 1 h [4]?
A: 291 µM (≈ 98.5 µg/mL)

Q: And the chromatographic logD [5]?
A: 0.8

Q: What about the AM Perm [6] of the same compound?
A: 9.1 ×10⁻⁶ cm/s

Q: What about the IC50 [7] of the same compound?
A: 0.066 µM

Q: What about the pIC50 [8] of the same compound?
A: < 4.30

Q: With CS(=O)(=O)c1ccc(-c2cnc(N)c(-c3ccc(C(F)(F)F)nc3)c2)cc1 [MMV390048] as the compound, how does the ED90 [9] read?
A: 1.1 mg/kg

Q: And the ED90 [10]?
A: 0.57 mg/kg

Q: Which “patients experiencing severe adverse events” value [11] does the source give for CC(C)(C)c1nc(-c2cccc(NS(=O)(=O)c3c(F)cccc3F)c2F)c(-c2ccnc(N)n2)s1 [dabrafenib] here?
A: 24%
